Assay [1] deals with T1, Serine/threonine-protein kinase BRSK2 (Homo sapiens) (UniProt Q8IWQ3).
T1 sequence (whole entry): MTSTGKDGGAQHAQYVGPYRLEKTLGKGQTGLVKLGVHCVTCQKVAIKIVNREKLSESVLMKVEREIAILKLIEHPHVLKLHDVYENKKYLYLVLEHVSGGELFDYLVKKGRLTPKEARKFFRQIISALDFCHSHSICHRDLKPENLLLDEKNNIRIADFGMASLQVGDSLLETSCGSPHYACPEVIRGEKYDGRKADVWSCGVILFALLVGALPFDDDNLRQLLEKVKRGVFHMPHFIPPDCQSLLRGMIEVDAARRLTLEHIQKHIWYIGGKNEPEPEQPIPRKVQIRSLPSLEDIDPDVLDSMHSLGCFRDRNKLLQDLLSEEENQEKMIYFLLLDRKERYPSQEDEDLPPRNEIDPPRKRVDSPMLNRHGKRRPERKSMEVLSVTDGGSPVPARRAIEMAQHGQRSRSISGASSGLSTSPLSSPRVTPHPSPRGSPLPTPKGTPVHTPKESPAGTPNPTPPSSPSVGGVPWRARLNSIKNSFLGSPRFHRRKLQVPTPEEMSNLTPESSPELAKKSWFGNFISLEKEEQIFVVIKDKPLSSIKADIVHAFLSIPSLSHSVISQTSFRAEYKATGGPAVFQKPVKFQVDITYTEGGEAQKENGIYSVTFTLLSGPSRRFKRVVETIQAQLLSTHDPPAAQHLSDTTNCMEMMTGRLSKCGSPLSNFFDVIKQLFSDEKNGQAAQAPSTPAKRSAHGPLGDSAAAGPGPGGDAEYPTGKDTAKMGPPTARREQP
In words: Selectivity interaction (Upstate Kinase Profiler service (Millipore)) EUB0000056c BRSK2. The following applies: at 1 µM.

Assay [2] deals with Serine/threonine-protein kinase PRP4 homolog (Homo sapiens) (UniProt Q13523). The following applies: at 10 µM.
Sequence of Serine/threonine-protein kinase PRP4 homolog (Homo sapiens) (Q13523 whole entry): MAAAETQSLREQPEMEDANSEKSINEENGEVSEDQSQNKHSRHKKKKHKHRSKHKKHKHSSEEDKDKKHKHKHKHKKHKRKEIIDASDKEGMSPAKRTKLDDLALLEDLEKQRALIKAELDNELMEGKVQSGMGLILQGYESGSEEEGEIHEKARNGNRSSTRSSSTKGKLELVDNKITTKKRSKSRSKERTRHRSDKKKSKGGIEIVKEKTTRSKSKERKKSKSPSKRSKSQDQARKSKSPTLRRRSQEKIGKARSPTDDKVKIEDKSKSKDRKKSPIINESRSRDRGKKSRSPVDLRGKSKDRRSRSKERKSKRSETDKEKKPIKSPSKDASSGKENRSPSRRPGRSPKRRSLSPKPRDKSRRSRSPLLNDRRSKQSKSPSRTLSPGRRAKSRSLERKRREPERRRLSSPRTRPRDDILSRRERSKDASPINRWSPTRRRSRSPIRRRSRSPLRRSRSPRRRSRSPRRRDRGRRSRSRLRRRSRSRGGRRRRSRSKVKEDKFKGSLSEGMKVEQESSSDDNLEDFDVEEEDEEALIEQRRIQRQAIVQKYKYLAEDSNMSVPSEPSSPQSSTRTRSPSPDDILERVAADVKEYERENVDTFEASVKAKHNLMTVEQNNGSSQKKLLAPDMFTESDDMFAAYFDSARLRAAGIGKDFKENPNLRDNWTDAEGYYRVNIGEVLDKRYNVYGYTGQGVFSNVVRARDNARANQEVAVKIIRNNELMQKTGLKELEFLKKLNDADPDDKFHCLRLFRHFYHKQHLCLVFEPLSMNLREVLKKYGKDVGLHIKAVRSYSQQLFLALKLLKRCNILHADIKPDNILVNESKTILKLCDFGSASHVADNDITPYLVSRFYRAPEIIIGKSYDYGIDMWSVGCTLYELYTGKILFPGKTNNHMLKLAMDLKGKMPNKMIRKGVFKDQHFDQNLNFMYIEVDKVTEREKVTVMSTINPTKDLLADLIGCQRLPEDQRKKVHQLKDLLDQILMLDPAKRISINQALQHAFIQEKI
For assay [3], the target named is Serine/threonine-protein kinase PAK 3 (Homo sapiens) (UniProt O75914). The following applies: at 10 µM.
Sequence of Serine/threonine-protein kinase PAK 3 (Homo sapiens) (O75914 whole entry, looked up): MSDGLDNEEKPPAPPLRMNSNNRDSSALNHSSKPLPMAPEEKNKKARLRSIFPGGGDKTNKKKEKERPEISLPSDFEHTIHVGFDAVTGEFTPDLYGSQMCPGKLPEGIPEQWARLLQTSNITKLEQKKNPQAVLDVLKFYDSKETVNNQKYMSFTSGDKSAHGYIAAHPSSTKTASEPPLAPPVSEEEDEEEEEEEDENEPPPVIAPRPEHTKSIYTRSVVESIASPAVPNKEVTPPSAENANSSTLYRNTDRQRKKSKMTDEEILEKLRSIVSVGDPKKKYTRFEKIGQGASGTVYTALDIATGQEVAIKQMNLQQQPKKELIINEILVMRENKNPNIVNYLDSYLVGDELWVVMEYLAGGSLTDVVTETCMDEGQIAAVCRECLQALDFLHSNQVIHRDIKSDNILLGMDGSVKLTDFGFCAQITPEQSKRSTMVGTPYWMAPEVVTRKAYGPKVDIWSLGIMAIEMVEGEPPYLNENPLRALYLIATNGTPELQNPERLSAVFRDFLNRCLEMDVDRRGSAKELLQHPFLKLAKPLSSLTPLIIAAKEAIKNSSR
The target in assay [4] is Serine/threonine-protein kinase Nek4 (Homo sapiens) (UniProt P51957). Description: Selectivity interaction (KinomeScan (DiscoverX)) EUB0000655a NEK4. The following applies: at 10 µM.
Sequence of Serine/threonine-protein kinase Nek4 (Homo sapiens) (P51957 whole entry, looked up): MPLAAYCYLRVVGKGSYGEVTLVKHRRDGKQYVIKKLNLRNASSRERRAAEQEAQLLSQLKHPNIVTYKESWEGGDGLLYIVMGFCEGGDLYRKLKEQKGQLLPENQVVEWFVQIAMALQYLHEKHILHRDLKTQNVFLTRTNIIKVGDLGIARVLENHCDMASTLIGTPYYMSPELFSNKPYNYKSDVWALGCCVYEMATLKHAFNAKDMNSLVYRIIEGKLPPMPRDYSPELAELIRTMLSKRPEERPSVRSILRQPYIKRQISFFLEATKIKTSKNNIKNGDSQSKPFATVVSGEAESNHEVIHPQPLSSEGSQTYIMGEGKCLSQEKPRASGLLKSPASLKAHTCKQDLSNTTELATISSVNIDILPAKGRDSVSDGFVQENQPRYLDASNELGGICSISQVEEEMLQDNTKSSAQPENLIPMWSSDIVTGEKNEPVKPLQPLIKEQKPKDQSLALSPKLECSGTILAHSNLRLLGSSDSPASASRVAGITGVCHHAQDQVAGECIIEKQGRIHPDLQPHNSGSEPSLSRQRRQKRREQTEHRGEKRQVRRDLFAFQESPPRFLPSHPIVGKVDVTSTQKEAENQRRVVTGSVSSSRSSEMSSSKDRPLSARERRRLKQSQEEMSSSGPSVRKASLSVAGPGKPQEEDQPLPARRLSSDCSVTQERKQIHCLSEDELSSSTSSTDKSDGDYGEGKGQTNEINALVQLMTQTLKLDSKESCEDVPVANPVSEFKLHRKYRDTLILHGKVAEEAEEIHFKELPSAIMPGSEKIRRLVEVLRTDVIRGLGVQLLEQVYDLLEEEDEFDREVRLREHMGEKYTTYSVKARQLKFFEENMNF
In assay [5] the target is Homeodomain-interacting protein kinase 2 (Homo sapiens, UniProt Q9H2X6). In words: Selectivity interaction (Kinase panel (Invitrogen)) EUB0000639a HIPK2. The following applies: at 200 nM.
For assay [6], the system named is Tyrosine-protein kinase ABL1 (Homo sapiens), P00519 [F317L]. Description: Selectivity interaction (KinomeScan (DiscoverX)) EUB0000229b ABL1. The following applies: at 1 µM.
Sequence of Tyrosine-protein kinase ABL1 (Homo sapiens), P00519 [F317L] (P00519 whole entry F317L): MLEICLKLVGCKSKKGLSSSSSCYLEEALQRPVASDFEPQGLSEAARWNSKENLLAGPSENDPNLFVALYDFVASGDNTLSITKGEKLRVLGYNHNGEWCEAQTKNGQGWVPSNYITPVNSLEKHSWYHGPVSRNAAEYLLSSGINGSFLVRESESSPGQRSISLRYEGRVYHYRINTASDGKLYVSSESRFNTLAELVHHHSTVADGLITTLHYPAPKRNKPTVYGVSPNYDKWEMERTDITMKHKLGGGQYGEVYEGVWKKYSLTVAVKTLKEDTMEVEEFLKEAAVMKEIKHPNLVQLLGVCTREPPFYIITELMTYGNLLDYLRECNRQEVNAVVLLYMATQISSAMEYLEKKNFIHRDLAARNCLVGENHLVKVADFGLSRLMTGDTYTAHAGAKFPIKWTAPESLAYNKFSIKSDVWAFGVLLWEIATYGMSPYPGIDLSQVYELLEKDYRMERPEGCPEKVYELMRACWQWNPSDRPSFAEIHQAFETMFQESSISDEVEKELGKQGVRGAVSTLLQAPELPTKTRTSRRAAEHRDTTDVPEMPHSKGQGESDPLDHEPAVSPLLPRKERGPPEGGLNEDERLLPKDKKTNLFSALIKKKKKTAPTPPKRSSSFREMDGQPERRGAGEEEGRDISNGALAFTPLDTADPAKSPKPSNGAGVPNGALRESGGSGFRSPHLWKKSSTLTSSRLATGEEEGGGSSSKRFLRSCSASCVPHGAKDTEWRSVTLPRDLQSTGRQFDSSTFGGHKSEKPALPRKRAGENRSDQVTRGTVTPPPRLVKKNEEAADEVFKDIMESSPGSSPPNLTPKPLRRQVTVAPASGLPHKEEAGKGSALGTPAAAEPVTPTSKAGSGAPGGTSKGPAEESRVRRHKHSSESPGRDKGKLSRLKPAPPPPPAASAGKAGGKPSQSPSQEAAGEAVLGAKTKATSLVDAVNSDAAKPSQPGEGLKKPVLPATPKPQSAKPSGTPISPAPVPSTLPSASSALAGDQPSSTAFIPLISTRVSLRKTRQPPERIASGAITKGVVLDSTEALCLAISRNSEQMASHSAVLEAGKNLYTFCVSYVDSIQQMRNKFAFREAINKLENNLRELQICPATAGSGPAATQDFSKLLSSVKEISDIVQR
For assay [7], the target named is T2, Tyrosine-protein kinase JAK3 (Homo sapiens) (UniProt P52333).
T2 sequence (whole entry): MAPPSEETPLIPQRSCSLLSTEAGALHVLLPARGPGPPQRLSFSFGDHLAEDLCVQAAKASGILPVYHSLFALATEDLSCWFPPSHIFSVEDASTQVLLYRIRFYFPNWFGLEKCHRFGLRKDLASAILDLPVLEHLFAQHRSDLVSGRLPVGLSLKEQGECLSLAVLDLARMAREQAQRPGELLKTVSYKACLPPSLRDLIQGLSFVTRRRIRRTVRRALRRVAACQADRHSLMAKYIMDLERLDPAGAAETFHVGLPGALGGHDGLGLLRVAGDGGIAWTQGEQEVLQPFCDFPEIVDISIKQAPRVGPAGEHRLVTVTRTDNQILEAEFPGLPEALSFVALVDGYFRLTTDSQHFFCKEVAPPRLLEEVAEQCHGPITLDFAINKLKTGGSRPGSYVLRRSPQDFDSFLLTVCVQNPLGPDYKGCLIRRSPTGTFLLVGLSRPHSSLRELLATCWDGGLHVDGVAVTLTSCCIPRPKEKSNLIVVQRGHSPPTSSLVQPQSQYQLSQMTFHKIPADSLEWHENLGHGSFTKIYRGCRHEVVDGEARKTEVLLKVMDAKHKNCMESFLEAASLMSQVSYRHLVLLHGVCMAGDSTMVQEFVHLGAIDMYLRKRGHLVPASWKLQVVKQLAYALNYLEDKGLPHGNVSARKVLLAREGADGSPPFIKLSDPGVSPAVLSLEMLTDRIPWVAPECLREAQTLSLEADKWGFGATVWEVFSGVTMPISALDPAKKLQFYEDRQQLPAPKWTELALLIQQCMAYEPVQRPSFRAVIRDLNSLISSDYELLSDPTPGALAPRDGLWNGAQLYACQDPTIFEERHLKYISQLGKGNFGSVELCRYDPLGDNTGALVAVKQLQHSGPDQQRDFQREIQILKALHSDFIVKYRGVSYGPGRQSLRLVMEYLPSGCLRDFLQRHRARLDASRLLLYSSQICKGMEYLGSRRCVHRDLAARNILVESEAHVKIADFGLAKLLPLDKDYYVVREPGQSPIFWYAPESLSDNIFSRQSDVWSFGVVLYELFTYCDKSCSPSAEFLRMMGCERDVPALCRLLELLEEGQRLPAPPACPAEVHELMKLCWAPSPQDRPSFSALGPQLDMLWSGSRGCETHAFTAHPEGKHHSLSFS
In words: Selectivity interaction (ActivX KiNativ screen (ex vivo kinase selectivity in human PBMCs)) EUB0001619a JAK3. Format: cell-based. The following applies: PBMC, at 1 µM.

Assay [8] concerns the target Calcium/calmodulin-dependent protein kinase type 1G (Homo sapiens) (UniProt Q96NX5). Description: Selectivity interaction (KinomeScan (DiscoverX)) EUB0001619a CAMK1G. The following applies: at 1 µM.
The target in assay [9] is Macrophage colony-stimulating factor 1 receptor (Homo sapiens) (UniProt P07333). Description: Selectivity interaction (KinomeScan (DiscoverX)) EUB0000618a CSF1R. The following applies: at 10 µM.
Sequence of Macrophage colony-stimulating factor 1 receptor (Homo sapiens) (P07333 whole entry): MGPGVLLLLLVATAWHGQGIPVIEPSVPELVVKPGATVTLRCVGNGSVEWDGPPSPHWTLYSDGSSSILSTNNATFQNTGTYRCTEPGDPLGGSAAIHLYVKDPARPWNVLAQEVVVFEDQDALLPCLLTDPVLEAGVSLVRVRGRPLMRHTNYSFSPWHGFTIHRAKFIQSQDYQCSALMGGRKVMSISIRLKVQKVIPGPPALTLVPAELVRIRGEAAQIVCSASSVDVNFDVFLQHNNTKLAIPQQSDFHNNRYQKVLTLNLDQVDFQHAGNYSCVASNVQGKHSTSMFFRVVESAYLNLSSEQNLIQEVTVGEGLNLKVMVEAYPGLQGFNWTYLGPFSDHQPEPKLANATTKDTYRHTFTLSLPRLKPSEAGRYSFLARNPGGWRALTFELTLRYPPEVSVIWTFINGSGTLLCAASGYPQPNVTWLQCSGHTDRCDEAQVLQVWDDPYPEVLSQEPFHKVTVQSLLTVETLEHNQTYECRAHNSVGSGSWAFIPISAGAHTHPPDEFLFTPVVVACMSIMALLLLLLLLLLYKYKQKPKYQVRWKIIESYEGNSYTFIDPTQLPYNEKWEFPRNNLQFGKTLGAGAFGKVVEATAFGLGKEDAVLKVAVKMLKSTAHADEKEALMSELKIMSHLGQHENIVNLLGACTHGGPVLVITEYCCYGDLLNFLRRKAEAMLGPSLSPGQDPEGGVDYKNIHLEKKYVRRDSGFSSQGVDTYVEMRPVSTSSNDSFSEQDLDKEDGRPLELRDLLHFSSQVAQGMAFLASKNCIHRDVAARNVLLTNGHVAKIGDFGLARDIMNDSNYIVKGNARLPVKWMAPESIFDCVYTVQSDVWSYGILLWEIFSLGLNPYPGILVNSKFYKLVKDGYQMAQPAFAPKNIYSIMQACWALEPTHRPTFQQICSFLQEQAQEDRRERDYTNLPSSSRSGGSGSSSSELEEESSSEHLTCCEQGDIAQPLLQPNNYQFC

Molecules are shown by their SMILES.

Sequence of Calcium/calmodulin-dependent protein kinase type 1G (Homo sapiens) (Q96NX5 whole entry): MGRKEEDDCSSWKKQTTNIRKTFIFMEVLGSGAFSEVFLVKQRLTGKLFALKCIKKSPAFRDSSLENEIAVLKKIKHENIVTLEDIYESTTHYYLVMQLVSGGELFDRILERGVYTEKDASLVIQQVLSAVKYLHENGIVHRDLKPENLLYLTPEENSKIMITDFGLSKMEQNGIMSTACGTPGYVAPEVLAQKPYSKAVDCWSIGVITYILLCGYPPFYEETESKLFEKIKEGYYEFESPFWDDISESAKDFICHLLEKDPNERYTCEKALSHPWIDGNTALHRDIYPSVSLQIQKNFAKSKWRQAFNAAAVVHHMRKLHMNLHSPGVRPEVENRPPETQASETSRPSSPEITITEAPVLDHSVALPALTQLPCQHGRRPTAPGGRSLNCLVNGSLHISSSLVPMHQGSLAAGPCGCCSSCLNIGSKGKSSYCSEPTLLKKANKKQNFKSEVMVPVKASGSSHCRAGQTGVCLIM

The compound `Cc1ccc(-c2ccc3c(ccc4sc5c(c43)NC[C@@H](C)NC5=O)n2)cn1` yielded a % of inhibition in assay [1] of 93%.

Consider `Cc1cc([C@@H](C)Nc2ccccc2C(=O)O)c2nc(N3CCOCC3)cc(=O)n2c1` [AZD-6482], for which the results for the % of control in assay [2] and in [3] were 71% and 98%, respectively.

`CN(C)CCOc1ccc(-c2nc(-c3ccncc3)c(-c3ccc4c(c3)CC/C4=N\O)[nH]2)cc1`: the % of control in assay [4] was 100%.

`CC[C@@H]1[C@H](F)C(=O)N[C@@H]1COc1nccc2cc(C(N)=O)c(OC)cc12` [ZIMLOVISERTIB] had a % of inhibition in assay [5] of 4.6%.

Turning to `COc1cc(N(C)c2ccnc3ccc(C(F)(F)F)cc23)cc(OC)c1OC`, the % binding in assay [6] worked out at 90%.

As for `N#Cc1cccc(-c2c[nH]c3ncnc(N4CCOCC4)c23)c1`, in [7], the % of inhibition was 6%. For the same compound, in assay [8], the % of control was determined as 100%.

`O[C@H]1CC[C@H](Nc2ncc3nc(Nc4c(F)cc(F)cc4F)n([C@H]4CCOC4)c3n2)CC1` displayed a % of control in assay [9] of 64%.
